Numbered stars: 1 amine (or outer) side, 2 acyl side, 3 side chain; on linkers, the order of the positions; unused ones are H or OH. Bridge positions count the residues as written; N and C are the ends. Square brackets hold non-standard residues; d marks the D form. Peptide text beside a SMILES is read from it. * marks the point of attachment. Bip = N[C@@H](Cc1ccc(-c2ccccc2)cc1)C(=O)O; Phe(3-Me) = Cc1cccc(C[C@H](N)C(=O)O)c1; γGlu = O=C(O)[C@H](CCC(=O)[*:2])N[*:1]; βAsp = O=C(O)[C@H](CC(=O)[*:2])N[*:1]; Cha = N[C@@H](CC1CCCCC1)C(=O)O; Cit = NC(=O)NCCC[C@H](N)C(=O)O; Carboxymethyl = O=C(O)C*; Orn = NCCC[C@H](N)C(=O)O; Aun = NCCCCCCCCCCC(=O)O; Dab = NCC[C@H](N)C(=O)O; Dap = NC[C@H](N)C(=O)O; AEEA = NCCOCCOCC(=O)O

T1 sequence (Q15116 25-288): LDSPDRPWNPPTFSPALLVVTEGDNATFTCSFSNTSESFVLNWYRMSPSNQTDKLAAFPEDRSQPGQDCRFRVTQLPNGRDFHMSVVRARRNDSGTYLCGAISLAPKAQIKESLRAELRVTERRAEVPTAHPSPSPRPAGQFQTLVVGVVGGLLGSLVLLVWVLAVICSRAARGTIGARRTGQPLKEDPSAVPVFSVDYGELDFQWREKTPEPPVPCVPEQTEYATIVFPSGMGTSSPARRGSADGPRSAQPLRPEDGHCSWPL

The assay has as its target T1, PD-1/PD-L1 interaction (PE-labeled human PD-L1-Ig binding to Jurkat cell line over-expressing human PD-1) (Homo sapiens, UniProt Q15116).
T1 construct: expressed in transfected cells; host or cells: Jurkat
The experiment in a line: Jurkat-PD-1 Cell Binding High-Content Screening Assay (CBA). Format: cell-based. To be noted: Jurkat cell line over-expressing human PD-1; PE-labeled PD-L1-Ig 20 nM final; read-out: Jurkat hPD1-PDL1 IC50. The method, then: Example 2: Jurkat-PD-1 Cell Binding High-Content Screening Assay (CBA)
Phycoerythrin (PE) was covalently linked to the Ig epitope tag of human PD-L1-Ig and fluorescently-labeled PD-L1-Ig was used for binding studies with a Jurkat cell line over-expressing human PD-1 (Jurkat-PD-1). Briefly, 8×10^3 Jurkat-hPD-1 cells were seeded into 384 well plates in 20 μl of DMEM supplemented with 10% fetal calf serum. 100 nl of compound was added to cells followed by incubation at 37° C. for 2 h. Then, 5 μl of PE-labeled PD-L1-Ig (20 nM final), diluted in DMEM supplemented with 10% fetal calf serum. After 1 hour incubation, cells were fixed with 4% paraformaldehyde in dPBS containing 10 μg/ml Hoechst 33342 and then washed 3× in 100 μl dPBS. Data was collected and processed using a Cell Insight NXT High Content Imager and associated software.
A word on the IC50: it is the midpoint of a concentration-inhibition curve. Regarding `Cc1cccc(C[C@@H]2NC(=O)[C@H](CC(=O)O)NC(=O)[C@H](Cc3ccc(OCC(=O)O)cc3)NC(=O)[C@H](CN)NC(=O)CSC[C@@H](C(=O)N[C@@H](C)C(=O)N[C@@H](CC(=O)O)C(=O)NCCOCCOCC(=O)N[C@@H](CC(=O)NCCOCCOCC(=O)NCCCCCCCCCCC(=O)O)C(=O)O)NC(=O)[C@H]([C@@H](C)O)NC(=O)[C@H](C(C)C)NC(=O)[C@H](CC3CCCCC3)NC(=O)[C@H](CCN)NC(=O)[C@@H](CC(C)C)NC(=O)[C@H](CCCN)NC(=O)[C@H](CCCNC(N)=O)NC(=O)[C@H](Cc3ccc(-c4ccccc4)cc3)NC(=O)[C@H](C(C)C)NC2=O)c1` [Compound 1021] ({CH2CO}-[Dap]Y(Carboxymethyl)D[Phe(3-Me)]V[Bip][Cit][Orn][dL][Dab][Cha]VTCAD[AEEA][βAsp][AEEA][Aun]-OH; thioether N-14), the IC50 is 8.3 nM.

With `Cc1cccc(C[C@@H]2NC(=O)[C@H](CC(=O)O)NC(=O)[C@H](Cc3ccc(OCC(=O)O)cc3)NC(=O)[C@H](CN)NC(=O)CSC[C@@H](C(=O)N[C@@H](C)C(=O)N[C@@H](CCC(=O)O)C(=O)NCCOCCOCC(=O)N[C@@H](CC(=O)NCCOCCOCC(=O)NCCCCCCCCCCC(=O)O)C(=O)O)NC(=O)[C@H]([C@@H](C)O)NC(=O)[C@H](C(C)C)NC(=O)[C@H](CC3CCCCC3)NC(=O)[C@H](CCN)NC(=O)[C@@H](CC(C)C)NC(=O)[C@H](CCCN)NC(=O)[C@H](CCCNC(N)=O)NC(=O)[C@H](Cc3ccc(-c4ccccc4)cc3)NC(=O)[C@H](C(C)C)NC2=O)c1` [Compound 1022] ({CH2CO}-[Dap]Y(Carboxymethyl)D[Phe(3-Me)]V[Bip][Cit][Orn][dL][Dab][Cha]VTCAE[AEEA][βAsp][AEEA][Aun]-OH; thioether N-14), the IC50 stood at 5.7 nM. With `Cc1cccc(C[C@@H]2NC(=O)[C@H](CC(=O)O)NC(=O)[C@H](Cc3ccc(OCC(=O)O)cc3)NC(=O)[C@H](CN)NC(=O)CSC[C@@H](C(=O)N[C@@H](C)C(=O)N[C@@H](CC(=O)NCCCCCCCCCCC(=O)O)C(=O)O)NC(=O)[C@H]([C@@H](C)O)NC(=O)[C@H](C(C)C)NC(=O)[C@H](CC3CCCCC3)NC(=O)[C@H](CCN)NC(=O)[C@@H](CC(C)C)NC(=O)[C@H](CCCN)NC(=O)[C@H](CCCNC(N)=O)NC(=O)[C@H](Cc3ccc(-c4ccccc4)cc3)NC(=O)[C@H](C(C)C)NC2=O)c1` [Compound 1023] ({CH2CO}-[Dap]Y(Carboxymethyl)D[Phe(3-Me)]V[Bip][Cit][Orn][dL][Dab][Cha]VTCA[βAsp][Aun]-OH; thioether N-14) the figure was 7.9 nM; with `Cc1cccc(C[C@@H]2NC(=O)[C@H](CC(=O)O)NC(=O)[C@H](Cc3ccc(OCC(=O)O)cc3)NC(=O)[C@H](CN)NC(=O)CSC[C@@H](C(=O)N[C@@H](CCC(=O)NCCCCCCCCCCC(=O)O)C(=O)O)NC(=O)[C@H]([C@@H](C)O)NC(=O)[C@H](C(C)C)NC(=O)[C@H](CC3CCCCC3)NC(=O)[C@H](CCN)NC(=O)[C@@H](CC(C)C)NC(=O)[C@H](CCCN)NC(=O)[C@H](CCCNC(N)=O)NC(=O)[C@H](Cc3ccc(-c4ccccc4)cc3)NC(=O)[C@H](C(C)C)NC2=O)c1` [Compound 1024] ({CH2CO}-[Dap]Y(Carboxymethyl)D[Phe(3-Me)]V[Bip][Cit][Orn][dL][Dab][Cha]VTC[γGlu][Aun]-OH; thioether N-14), 6.6 nM. For the compound `Cc1cccc(C[C@@H]2NC(=O)[C@H](CC(=O)O)NC(=O)[C@H](Cc3ccc(OCC(=O)O)cc3)NC(=O)[C@H](CN)NC(=O)CSC[C@@H](C(=O)N[C@@H](CC(=O)NCCCCCCCCCCC(=O)O)C(=O)O)NC(=O)[C@H]([C@@H](C)O)NC(=O)[C@H](C(C)C)NC(=O)[C@H](CC3CCCCC3)NC(=O)[C@H](CCN)NC(=O)[C@@H](CC(C)C)NC(=O)[C@H](CCCN)NC(=O)[C@H](CCCNC(N)=O)NC(=O)[C@H](Cc3ccc(-c4ccccc4)cc3)NC(=O)[C@H](C(C)C)NC2=O)c1` [Compound 1025] ({CH2CO}-[Dap]Y(Carboxymethyl)D[Phe(3-Me)]V[Bip][Cit][Orn][dL][Dab][Cha]VTC[βAsp][Aun]-OH; thioether N-14), the IC50 was 10.8 nM. Then `Cc1cccc(C[C@@H]2NC(=O)[C@H](CC(=O)O)NC(=O)[C@H](Cc3ccc(OCC(=O)O)cc3)NC(=O)[C@H](CN)NC(=O)CSC[C@@H](C(=O)N[C@@H](CC(=O)O)C(=O)NCCCCCCCCCCC(=O)O)NC(=O)[C@H]([C@@H](C)O)NC(=O)[C@H](C(C)C)NC(=O)[C@H](CC3CCCCC3)NC(=O)[C@H](CCN)NC(=O)[C@@H](CC(C)C)NC(=O)[C@H](CCCN)NC(=O)[C@H](CCCNC(N)=O)NC(=O)[C@H](Cc3ccc(-c4ccccc4)cc3)NC(=O)[C@H](C(C)C)NC2=O)c1` [Compound 1026] ({CH2CO}-[Dap]Y(Carboxymethyl)D[Phe(3-Me)]V[Bip][Cit][Orn][dL][Dab][Cha]VTCD[Aun]-OH; thioether N-14), with 8.7 nM; and `Cc1cccc(C[C@@H]2NC(=O)[C@H](CC(=O)O)NC(=O)[C@H](Cc3ccc(OCC(=O)O)cc3)NC(=O)[C@H](CN)NC(=O)CSC[C@@H](C(=O)N[C@@H](CCC(=O)O)C(=O)NCCCCCCCCCCC(=O)O)NC(=O)[C@H]([C@@H](C)O)NC(=O)[C@H](C(C)C)NC(=O)[C@H](CC3CCCCC3)NC(=O)[C@H](CCN)NC(=O)[C@@H](CC(C)C)NC(=O)[C@H](CCCN)NC(=O)[C@H](CCCNC(N)=O)NC(=O)[C@H](Cc3ccc(-c4ccccc4)cc3)NC(=O)[C@H](C(C)C)NC2=O)c1` [Compound 1027] ({CH2CO}-[Dap]Y(Carboxymethyl)D[Phe(3-Me)]V[Bip][Cit][Orn][dL][Dab][Cha]VTCE[Aun]-OH; thioether N-14), with 17.1 nM; and `Cc1cccc(C[C@@H]2NC(=O)[C@H](CC(=O)O)NC(=O)[C@H](Cc3ccc(OCC(=O)O)cc3)NC(=O)[C@H](CN)NC(=O)CSC[C@@H](C(=O)N[C@@H](C)C(=O)NCCOCCOCC(=O)NCCCCCCCCCCC(=O)O)NC(=O)[C@H]([C@@H](C)O)NC(=O)[C@H](C(C)C)NC(=O)[C@H](CC3CCCCC3)NC(=O)[C@H](CCN)NC(=O)[C@@H](CC(C)C)NC(=O)[C@H](CCCN)NC(=O)[C@H](CCCNC(N)=O)NC(=O)[C@H](Cc3ccc(-c4ccccc4)cc3)NC(=O)[C@H](C(C)C)NC2=O)c1` [Compound 1029] ({CH2CO}-[Dap]Y(Carboxymethyl)D[Phe(3-Me)]V[Bip][Cit][Orn][dL][Dab][Cha]VTCA[AEEA][Aun]-OH; thioether N-14), with 7.4 nM. As for `Cc1cccc(C[C@@H]2NC(=O)[C@H](CC(=O)O)NC(=O)[C@H](Cc3ccc(OCC(=O)O)cc3)NC(=O)[C@H](CN)NC(=O)CSC[C@@H](C(=O)NCCOCCOCC(=O)N[C@@H](CCC(=O)NCCCCCCCCCCC(=O)O)C(=O)O)NC(=O)[C@H]([C@@H](C)O)NC(=O)[C@H](C(C)C)NC(=O)[C@H](CC3CCCCC3)NC(=O)[C@H](CCN)NC(=O)[C@@H](CC(C)C)NC(=O)[C@H](CCCN)NC(=O)[C@H](CCCNC(N)=O)NC(=O)[C@H](Cc3ccc(-c4ccccc4)cc3)NC(=O)[C@H](C(C)C)NC2=O)c1` [Compound 1030] ({CH2CO}-[Dap]Y(Carboxymethyl)D[Phe(3-Me)]V[Bip][Cit][Orn][dL][Dab][Cha]VTC[AEEA][γGlu][Aun]-OH; thioether N-14), the half-maximal inhibitory concentration (IC50) worked out at 4.3 nM. Then `Cc1cccc(C[C@@H]2NC(=O)[C@H](CC(=O)O)NC(=O)[C@H](Cc3ccc(OCC(=O)O)cc3)NC(=O)[C@H](CN)NC(=O)CSC[C@@H](C(=O)NCCOCCOCC(=O)N[C@@H](CC(=O)NCCCCCCCCCCC(=O)O)C(=O)O)NC(=O)[C@H]([C@@H](C)O)NC(=O)[C@H](C(C)C)NC(=O)[C@H](CC3CCCCC3)NC(=O)[C@H](CCN)NC(=O)[C@@H](CC(C)C)NC(=O)[C@H](CCCN)NC(=O)[C@H](CCCNC(N)=O)NC(=O)[C@H](Cc3ccc(-c4ccccc4)cc3)NC(=O)[C@H](C(C)C)NC2=O)c1` [Compound 1031] ({CH2CO}-[Dap]Y(Carboxymethyl)D[Phe(3-Me)]V[Bip][Cit][Orn][dL][Dab][Cha]VTC[AEEA][βAsp][Aun]-OH; thioether N-14), with 6.8 nM; and `Cc1cccc(C[C@@H]2NC(=O)[C@H](CC(=O)O)NC(=O)[C@H](Cc3ccc(OCC(=O)O)cc3)NC(=O)[C@H](CN)NC(=O)CSC[C@@H](C(=O)NCCOCCOCC(=O)N[C@@H](CC(=O)O)C(=O)NCCCCCCCCCCC(=O)O)NC(=O)[C@H]([C@@H](C)O)NC(=O)[C@H](C(C)C)NC(=O)[C@H](CC3CCCCC3)NC(=O)[C@H](CCN)NC(=O)[C@@H](CC(C)C)NC(=O)[C@H](CCCN)NC(=O)[C@H](CCCNC(N)=O)NC(=O)[C@H](Cc3ccc(-c4ccccc4)cc3)NC(=O)[C@H](C(C)C)NC2=O)c1` [Compound 1032] ({CH2CO}-[Dap]Y(Carboxymethyl)D[Phe(3-Me)]V[Bip][Cit][Orn][dL][Dab][Cha]VTC[AEEA]D[Aun]-OH; thioether N-14), with 6.1 nM; and `Cc1cccc(C[C@@H]2NC(=O)[C@H](CC(=O)O)NC(=O)[C@H](Cc3ccc(OCC(=O)O)cc3)NC(=O)[C@H](CN)NC(=O)CSC[C@@H](C(=O)NCCOCCOCC(=O)N[C@@H](CCC(=O)O)C(=O)NCCCCCCCCCCC(=O)O)NC(=O)[C@H]([C@@H](C)O)NC(=O)[C@H](C(C)C)NC(=O)[C@H](CC3CCCCC3)NC(=O)[C@H](CCN)NC(=O)[C@@H](CC(C)C)NC(=O)[C@H](CCCN)NC(=O)[C@H](CCCNC(N)=O)NC(=O)[C@H](Cc3ccc(-c4ccccc4)cc3)NC(=O)[C@H](C(C)C)NC2=O)c1` [Compound 1033] ({CH2CO}-[Dap]Y(Carboxymethyl)D[Phe(3-Me)]V[Bip][Cit][Orn][dL][Dab][Cha]VTC[AEEA]E[Aun]-OH; thioether N-14), with 8.7 nM.

The record behind these values is patent US20260022142A1, “MACROCYCLIC IMMUNOMODULATORS” (Bristol-Myers Squibb Company, priority 2022, published 2026).
